{"source": "patent US4657924A", "about": "“Nafazatrom as a lipoxygenase inhibitor” (priority 1983, dated 1987)", "key": {"15-lipoxygenase": {"test_system": "15-lipoxygenase", "test": "15-lipoxygenase inhibition", "type": "biochemical", "settings": "concentrations of >10 μg/ml"}, "[1]": {"test_system": "synthesis of various prostaglandins in RSVM and BAM", "test": "Prostaglandin synthesis in microsomes of sheep seminal vesicles (RSVM) and cattle aortas (BAM)", "type": "biochemical", "procedure": "The specific PGI2 -stimulating action of nafazatrom was shown in vitro in a mixture of microsomes from the seminal vesicles of sheep (RSVM) and the aortas of cattle (BAM) (compare F. Cottee et al., Protaglandins, 14, 413, 1977). ^3 H-arachidonic acid was incubated with a mixture of RSVM and BAM in the presence of 3.10^-5 g/ml of nafazatrom at 25° C. for 10 minutes. The reaction was stopped by acidification to pH 3.5. The fatty acid metabolites were extracted with ethyl acetate. The ethyl acetate was evaporated off under N2, the residue was taken up in CH3 OH/CHCl3 (1:1) and the mixture was discharged on thin layer chromatography plastic sheets. Separation was effected with a mobile phase mixture of ethyl acetate/glacial acetic acid/isooctane/H2 O (110:20:50:10; organic phase) (P. Needleman et al., The Journal of Clinical Investigation 1978, 61, 839-849). The distribution of the radioactivity was measured by means of a radio scanner."}, "rabbit hearts": {"test_system": "rabbit hearts", "test": "Rabbit hearts perfused by the method of Langendorff, perfusion pressure", "procedure": "The heart was removed from the rabbits (up to about 2 kg) under Nembutal anaesthesia and cannulas were attached at the aorta and at the a.pulmonalis. To measure the isovolumetric contractions, a silicon rubber balloon filled with liquid was inserted into the left ventricle via the left auricle. The balloon was connected to a liquid sensor (Statham P 23 Db) via a liquid bridge. The perfusion pressure was recorded with a pressure sensor, which was connected to the perfusion system via T-piece before the aorta cannula of the heart. The contraction force and perfusion pressure were recorded with a Gould 2600 S high-speed recorder. The hearts were stimulated electrically at a frequency of 180/minute and a stimulation duration of 5 mseconds.\nPerfusion of the hearts was effected with Krebs-Henseleit solution (KH solution), which was gassed with carbogen (95% of O2, 5% of CO2) or with a gas mixture of 2% of O2, 5.6% of CO2 and the remainder N2. The perfusion volume was 20 ml/minute and was adjusted by a roller pump (Desaga, 132100). The nafazatrom and the platelet suspensions (obtained from the same rabbit from which the heart is removed) were added with the aid of infusion pumps (roller pumps, Braun-Melsungen), the solution or suspension being infused at a flow rate of 0.2 or 0.1 ml/minute from an infusion syringe via a Taigon tube and a fine cannula into the inlet tube shortly before the heart. The final concentration of the platelets was 1×10^7 /ml of KH solution. The solution flowing out of the heart (cannula in the a.pulmonalis) was collected periodically, under ice-cooling. To measure the concentrations of thromboxan as TXB2 and of prostacyclin as 6-keto-PGF1^α, determination of which was effected with the aid of radioimmunoassay, aliquot parts by volume were freeze-dried and taken up in one tenth of the original volume of water."}, "guinea pig lung": {"test_system": "guinea pig lung", "test": "Inhibition of methacholine-induced bronchoconstriction in perfused guinea pig lung", "settings": "10^-4 g/ml; 0.05 μg/ml of methacholine", "procedure": "Nafazatrom can moreover be used for the therapy of pulmonary hypertension, pulmonary embolisms and pulmonary oedemas. […] In this organ, nafazatrom inhibits (by the method of F. P. Luduena et al., Arch. Int. Pharmacodyn. 111, 392, 1957) methacholine-induced bronchoconstriction (see Example 5).\nThe guinea pig lung was perfused with a physiological buffer solution (Tyrode's solution) containing 0.05 μg/ml of methacholine."}, "[2]": {"settings": "3.10^-5 g/ml, 25° C., 10 minutes"}}, "data": [{"smiles": "CC1=NN(CCOc2ccc3ccccc3c2)C(=O)C1", "note": "[nafazatrom, 3-methyl-1-[2-(2-naphthyloxy)-ethyl]-2-pyrazolin-5-one]", "values": [{"measurement": "inhibition of 15-lipoxygenase", "setting": "15-lipoxygenase", "value": "not inhibited or is even stimulated"}, {"measurement": "Increase in concentration (in %) in comparison with the control, 6-Keto-PGF1 α", "setting": "[1]; [2]", "value": "300-400%"}, {"measurement": "Increase in concentration (in %) in comparison with the control, PGD2", "setting": "[1]; [2]", "value": 0, "unit": "%"}, {"measurement": "Increase in concentration (in %) in comparison with the control, PGE2", "setting": "[1]; [2]", "value": 0, "unit": "%"}, {"measurement": "Increase in concentration (in %) in comparison with the control, PGF2 α", "setting": "[1]; [2]", "value": 0, "unit": "%"}, {"measurement": "synthesis of prostacyclin (PGI2)", "setting": "[1]; in words", "value": "specifically stimulates"}, {"measurement": "synthesis of the prostaglandins having a vasoconstricting action and of TXA2", "setting": "[1]; in words, see Example 2", "value": "not influenced"}, {"measurement": "Perfusion pressure in % of the blank value, 3rd phase", "setting": "rabbit hearts; as 2nd phase, 1.10^-5 g/ml of nafazatrom, 5 minutes", "value": 80, "unit": "%"}, {"measurement": "Perfusion pressure in % of the blank value, 5th phase", "setting": "rabbit hearts; as 3rd phase (reoxygenation), 1.10^-5 g/ml", "value": 75, "unit": "%"}, {"measurement": "Perfusion pressure in % of the blank value, 4th phase", "setting": "rabbit hearts; as 3rd phase, 2% of O2 (hypoxia), 10 minutes, 1.10^-5 g/ml", "value": 63, "unit": "%"}, {"measurement": "rise in perfusion pressure caused by addition of platelets", "setting": "rabbit hearts; first and second carbogen phase", "value": "significantly inhibits"}, {"measurement": "Perfusion pressure in % of the blank value, 2nd phase", "setting": "rabbit hearts; normoxia, carbogen, 1.10^7 platelets/ml, 5 minutes, before addition of nafazatrom", "value": 139, "unit": "%"}, {"measurement": "Perfusion pressure in % of the blank value, 1st phase", "setting": "rabbit hearts; preliminary phase, carbogen, before addition of nafazatrom", "value": 100, "unit": "%"}, {"measurement": "inhibition of the rise in perfusion pressure, and hence bronchoconstriction", "setting": "guinea pig lung", "value": 50, "unit": "%"}]}]}
